# Reference: US8741644B2, “Method for producing mast cells from pluripotent stem cells” (Kyoto University, priority 2009, dated 2014)
# Where no end group is shown, it is not given here.
# Test system: hESC-MCs
# Test: Activation of MCs: histamine release from hESC-MCs upon stimulation (ELISA histamine kit)
# Format: cell-based, human
# Details: hESC (H1)-derived mast cells, 15 min at 37° C., FIG. 13
# Method: For stimulation, substance P (Sigma), compound 48/80 or control medium was added to a 25 μl cell suspension (4×10^5 MCs/ml) in 96-well plates, and incubated for further 15 min at 37° C. The reaction was stopped by adding 200 μl ice-cold buffer. The cells were separated by centrifugation at 300×g for 7 min at 4° C., and the supernatant was collected. The cell pellet was resuspended in […] containing 0.5% Triton-X and 0.1% bovine serum albumin (BSA), quick frozen in liquid nitrogen and thawed 4 times. After centrifugation at 12,000×g for 15 min at 4° C., the soluble extract was collected. Histamine levels were measured by an ELISA histamine kit (Beckman Coulter)
substance,measurement,value
"substance P (RPKPQQFFGLM; ends and bridges not checked; UniProt P20366 58-68, looked up) [neuropeptide used as mast cell stimulant (Sigma)]",degranulation to release histamine,dose-dependent degranulation
